Source: US10214512B2, “Factor XIA inhibitors” (MERCK SHARP & DOHME CORP., priority 2015, dated 2019)

Legend:
[1] = biological target: purified Human plasma Kallikrein (Homo sapiens (Human), UniProt P03952); experiment: Kallikrein Assay; format: biochemical; details: purified Human plasma Kallikrein 0.5 nM; substrate Acetyl-K-P-R-AFC; 50 mM HEPES pH 7.4; Ki from IC50 by Cheng Prusoff
Protocol: The effectiveness of a compound of the present invention as an inhibitor of Kallikrein can be determined using a relevant purified serine protease, and an appropriate synthetic substrate. The rate of hydrolysis of the chromogenic or fluorogenic substrate by the relevant serine protease was measured both in the absence and presence of compounds of the present invention. Assays were conducted at rt or at 37° C. […] A decrease in the rate of fluorescence change in the presence of inhibitor is indicative of enzyme inhibition. Such methods are known to one skilled in the art. The results of this assay are expressed as the inhibitory constant, Ki.
Kallikrein determinations were made in 50 mM HEPES buffer at pH 7.4 containing 150 mM NaCl, 5 mM CaCl2, and 0.1% PEG 8000 (polyethylene glycol; Fisher Scientific). Determinations were made using purified Human plasma Kallikrein at a final concentration of 0.5 nM (Enzyme Research Laboratories) and the synthetic substrate, Acetyl-K-P-R-AFC (Sigma # C6608) at a concentration of […].
Times required to achieve equilibration between enzyme and inhibitor were determined in control experiments. […] IC50 was determined by inflection point from a four parameter logistic curve fit. Ki was calculated using the Cheng Prusoff equation, Ki=IC50/(1+([S]/Km)).

[2] = biological target: purified human Factor XIa (Homo sapiens (Human), UniProt P03951); experiment: Factor XIa Assay; format: biochemical; details: purified human Factor XIa 40 pM; substrate Z-Gly-Pro-Arg-AFC 100 μM; 50 mM HEPES pH 7.4; read-out: Human FXIa Ki
purified human Factor XIa, sequence (P03951 388-625): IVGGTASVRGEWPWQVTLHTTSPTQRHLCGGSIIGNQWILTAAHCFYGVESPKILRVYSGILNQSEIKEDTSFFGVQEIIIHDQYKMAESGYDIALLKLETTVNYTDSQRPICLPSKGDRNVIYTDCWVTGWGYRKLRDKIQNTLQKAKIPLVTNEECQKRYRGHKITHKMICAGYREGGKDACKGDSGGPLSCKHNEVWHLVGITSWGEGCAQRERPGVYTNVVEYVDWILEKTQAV
purified human Factor XIa, sequence (P03951 19-387 partner): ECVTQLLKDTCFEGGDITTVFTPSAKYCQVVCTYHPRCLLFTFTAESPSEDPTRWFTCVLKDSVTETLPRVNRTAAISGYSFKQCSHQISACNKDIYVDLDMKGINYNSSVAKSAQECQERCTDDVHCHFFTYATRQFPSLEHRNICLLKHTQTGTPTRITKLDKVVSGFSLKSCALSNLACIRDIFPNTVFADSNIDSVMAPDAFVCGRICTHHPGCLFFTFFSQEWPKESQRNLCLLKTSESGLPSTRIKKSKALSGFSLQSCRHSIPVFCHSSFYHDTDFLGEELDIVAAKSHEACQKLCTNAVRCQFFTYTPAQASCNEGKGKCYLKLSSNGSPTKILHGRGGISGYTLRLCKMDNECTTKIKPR
Method in brief: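 Purified human FXIa at 40 pM final with fluorogenic Z-Gly-Pro-Arg-AFC at 100 μM, in 50 mM HEPES pH 7.4, 150 mM NaCl, 5 mM CaCl2, 0.1% PEG 8000, at rt or 37° C. Initial velocities measured after enzyme–inhibitor equilibration; Ki derived from Vo/Vi versus [I] assuming competitive inhibition.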

purified Human plasma Kallikrein, sequence (P03952 391-638): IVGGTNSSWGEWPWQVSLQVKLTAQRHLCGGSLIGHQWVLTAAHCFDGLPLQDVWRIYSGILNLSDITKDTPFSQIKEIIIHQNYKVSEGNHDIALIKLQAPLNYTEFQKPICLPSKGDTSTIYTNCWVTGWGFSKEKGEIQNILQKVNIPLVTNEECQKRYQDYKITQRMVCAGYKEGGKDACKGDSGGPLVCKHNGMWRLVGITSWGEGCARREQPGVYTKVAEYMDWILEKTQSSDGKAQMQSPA
purified Human plasma Kallikrein, sequence (P03952 20-390 partner): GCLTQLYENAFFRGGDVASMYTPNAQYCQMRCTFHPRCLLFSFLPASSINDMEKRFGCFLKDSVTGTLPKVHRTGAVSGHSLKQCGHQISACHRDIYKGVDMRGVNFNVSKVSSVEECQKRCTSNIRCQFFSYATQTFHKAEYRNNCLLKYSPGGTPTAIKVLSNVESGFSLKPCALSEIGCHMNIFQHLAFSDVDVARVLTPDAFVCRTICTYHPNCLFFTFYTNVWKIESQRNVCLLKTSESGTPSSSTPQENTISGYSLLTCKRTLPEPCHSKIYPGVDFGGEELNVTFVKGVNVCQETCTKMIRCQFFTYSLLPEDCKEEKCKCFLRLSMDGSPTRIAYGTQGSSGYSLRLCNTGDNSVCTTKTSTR

SMILES | Ki [1] | Ki [2]
COC(=O)Nc1ccc2c(c1)NC(=O)CCCC[C@H](c1ccc(-c3cc(Cl)ccc3OC(F)(F)F)c[n+]1[O-])c1cccc-2c1 (single isomer, unassigned) [Example 30] | 6.77 nM | 0.38 nM
COC(=O)Nc1ccc2c(c1)NC(=O)CCCC[C@H](c1ccc(-c3cc(Cl)ccc3-n3cc(C(F)(F)F)cn3)c[n+]1[O-])c1cccc-2c1 (single isomer, unassigned) [Example 40] | 13.7 nM | 0.46 nM
COC(=O)Nc1ccc2c(c1)NC(=O)CCCC[C@H](c1ccc(-c3cc(Cl)ccc3-n3cc(C#N)cn3)c[n+]1[O-])c1cccc-2c1 (single isomer, unassigned) [Example 41] | 6.27 nM | 0.19 nM
COC(=O)Nc1ccc2c(c1)NC(=O)CCCC[C@H](c1ccc(-c3cc(Cl)ccc3-c3cnn(C(F)F)c3)c[n+]1[O-])c1cccc-2c1 (single isomer, unassigned) [Example 42] | 3.1 nM | 0.44 nM
Nc1ccc2c(c1)NC(=O)CCCCC(c1ccc(-c3c(F)ccc(Cl)c3F)c[n+]1[O-])c1cccc-2c1 (single isomer, unassigned) [Example 43-a, 2-(2^4-amino-4-oxo-3-aza-1(1,3),2(1,2)-dinenzenacyclononaphane-9-yl)-5-(3-chloro-2,6-difluorophenyl)pyridine 1-oxide] | 7 nM | 1.7 nM
COC(=O)Nc1ccc2c(c1)NC(=O)C(C)CCCC(c1ccc(-c3c(F)ccc(Cl)c3F)c[n+]1[O-])c1cccc-2c1 (single isomer, unassigned) [Example 50-b, 5-(3-chloro-2,6-difluorophenyl)-2-(2^4-((methoxycarbonyl)amino)-5-methyl-4-oxo-3-aza-1(1,3),2(1,2)-dinenzenacyclononaphane-9-yl)pyridine 1-oxide] | 10.6 nM | 3.5 nM
COC(=O)Nc1ccc2c(c1)NC(=O)C[C@H]1C[C@@H]1C[C@H](c1ccc(-c3c(F)ccc(Cl)c3F)c[n+]1[O-])c1cccc-2c1 (single isomer, unassigned) [Example 66] | 10.2 nM | 2.1 nM
COC(=O)Nc1ccc2c(c1)NC(=O)CCCC[C@H](c1ccc(-c3c(F)ccc(Cl)c3F)c[n+]1[O-])c1cc(F)c(F)c-2c1 (single isomer, unassigned) [Example 69] | 6.79 nM | 1.87 nM
COC(=O)Nc1ccc2c(c1)NC(=O)CCCC[C@H](c1ccc(-c3c(F)ccc(Cl)c3F)c[n+]1[O-])c1cc-2ncc1F (single isomer, unassigned) [Example 72] | 2.96 nM | 0.5 nM
COC(=O)Nc1ccc2c(c1)NC(=O)CCCC[C@H](c1ccc(-c3c(F)ccc(Cl)c3F)c[n+]1[O-])c1cc-2ncn1 (single isomer, unassigned) [Example 75] | 8.42 nM | 2.7 nM
O=C(C1CCCCC(c2ccc(-c3cc(Cl)ccc3-n3cnnn3)c[n+]2[O-])c2cccc(c2)-c2cc(F)ccc2N1)N1CCCC1 (single isomer, unassigned) [Example 79-b, 5-(5-Chloro-2-(1H-tetrazol-1-yl)phenyl)-2-(2^5-fluoro-4-(pyrrolidine-1-carbonyl)-3-aza-1(1,3),2(1,2)-dibenzenacyclononaphane-9-yl)pyridine 1-oxide] | 119 nM | 0.24 nM
O=C(C1CCCCC(c2ccc(-c3cc(Cl)ccc3-n3cnnn3)c[n+]2[O-])c2cccc(c2)-c2cc(F)ccc2N1)N1CCCC1 (single isomer, unassigned) [Example 79-c, 5-(5-Chloro-2-(1H-tetrazol-1-yl)phenyl)-2-(2^5-fluoro-4-(pyrrolidine-1-carbonyl)-3-aza-1(1,3),2(1,2)-dibenzenacyclononaphane-9-yl)pyridine 1-oxide] | 2920 nM | 52.2 nM
O=C(C1CCCCC(c2ccc(-c3cc(Cl)ccc3-n3cnnn3)c[n+]2[O-])c2cccc(c2)-c2cc(F)ccc2N1)N1CCCC1 (single isomer, unassigned) [Example 79-d, 5-(5-Chloro-2-(1H-tetrazol-1-yl)phenyl)-2-(2^5-fluoro-4-(pyrrolidine-1-carbonyl)-3-aza-1(1,3),2(1,2)-dibenzenacyclononaphane-9-yl)pyridine 1-oxide] | 2170 nM | 30.3 nM

Second part, the compound after the results:

Ki [1] | Ki [2] | SMILES
1.55 nM | 0.36 nM | COC(=O)Nc1ccc2c(c1)NC(=O)CCCCC(c1ccc(-c3c(F)ccc(Cl)c3F)c[n+]1[O-])c1cccc-2c1 (single isomer, unassigned) [Example 13-a, 5-(3-Chloro-2,6-difluorophenyl)-2-(2^4-((methoxycarbonyl)amino)-4-oxo-3-aza-1(1,3),2(1,2)-dibenzenacyclononaphane-9-yl)pyridine 1-oxide]
2.68 nM | 0.8 nM | COC(=O)Nc1ccc2c(c1)NC(=O)CCCC[C@H](c1ccc(-c3cc(Cl)ccc3C#N)c[n+]1[O-])c1cccc-2c1 (single isomer, unassigned) [Example 31]
2.95 nM | 0.83 nM | COC(=O)Nc1ccc2c(c1)NC(=O)CCCC[C@H](c1ccc(-c3cc(Cl)ccc3C(F)(F)F)c[n+]1[O-])c1cccc-2c1 (single isomer, unassigned) [Example 32]
1.67 nM | 0.28 nM | COC(=O)Nc1ccc2c(c1)NC(=O)CCCC[C@H](c1ccc(-c3cc(Cl)ccc3OC(F)F)c[n+]1[O-])c1cccc-2c1 (single isomer, unassigned) [Example 33]
0.81 nM | 0.26 nM | COC(=O)Nc1ccc2c(c1)NC(=O)CCCCC(c1ccc(-c3cc(Cl)ccc3-n3cc(C(F)F)nn3)c[n+]1[O-])c1cccc-2c1 (single isomer, unassigned) [Example 36-a, 5-(5-chloro-2-(4-(difluoromethyl)-1H-1,2,3-triazol-1-yl)phenyl)-2-(2^4-((methoxycarbonyl)amino)-4-oxo-3-aza-1(1,3),2(1,2)-dibenzenacyclononaphane-9-yl)pyridine 1-oxide]
0.36 nM | 0.13 nM | COC(=O)Nc1ccc2c(c1)NC(=O)CCCC[C@H](c1ccc(-c3cc(Cl)ccc3-n3cc(Cl)nn3)c[n+]1[O-])c1cccc-2c1 (single isomer, unassigned) [Example 37]
1.89 nM | 0.53 nM | COC(=O)Nc1ccc2c(c1)NC(=O)C(C)CCCC(c1ccc(-c3c(F)ccc(Cl)c3F)c[n+]1[O-])c1cccc-2c1 (single isomer, unassigned) [Example 50-a, 5-(3-chloro-2,6-difluorophenyl)-2-(2^4-((methoxycarbonyl)amino)-5-methyl-4-oxo-3-aza-1(1,3),2(1,2)-dinenzenacyclononaphane-9-yl)pyridine 1-oxide]
1.08 nM | 0.34 nM | COC(=O)Nc1ccc2c(c1)NC(=O)CCCC[C@H](c1ccc(-c3c(F)ccc(Cl)c3F)c[n+]1[O-])c1cc-2ccn1 (single isomer, unassigned) [Example 73]
0.46 nM | 0.14 nM | COC(=O)Nc1ccc2c(c1)NC(=O)CCCCC(c1ccc(-c3cc(Cl)ccc3-n3cnnn3)c[n+]1[O-])c1cc-2[n+]([O-])cc1F (single isomer, unassigned) [Example 81-a, 9-(5-(5-chloro-2-(1h-tetrazol-1-yl)phenyl)-1-oxidopyridin-2-yl)-1^5-fluoro-2^4-((methoxycarbonyl)amino)-4-oxo-3-aza-1(2,4)-pyridin-1-iuma-2(1,2)-benzenacyclononaphane 1^1-oxide]
